Values of other authors in US20260191206A1, “SYNERGISTIC INSECTICIDAL COMPOSITION COMPRISING PHTHALIMIDE COMPOUNDS AND THE USE THEREOF” (COUNCIL OF SCIENTIFIC AND INDUSTRIAL RESEARCH AN INDIAN …, priority 2022, published 2026).

Tested on: trehalose 6-phosphate phosphatase
Settings: Cross et al, Sci Rep 9, 16165 (2019)

## O=C1c2ccccc2C(=O)N1Sc1ccccc1 [NPP, N-(Phenylthio) phthalimide]
  inhibition of trehalose 6-phosphate phosphatase: inhibit
